PMC12090182, “Repurposing of the RIPK1-Selective Benzo[1,4]oxazepin-4-one Scaffold for the Development of a Type III LIMK1/2 Inhibitor” (ACS Chemical Biology, 2025)

Tests used:
Assay in all cases: scanMAX KINOMEscan (Eurofins)
Assay type in all cases: binding
SRPK1 = SRPK1 (Homo sapiens, UniProt Q96SB4); settings: 1000 nM, read-out: Percent Control
Source text: (§1) Supplement cb5c00097_si_002.xlsx, sheet "Table S6 (Eurofins Selectivity)" | column: Percent Control

TAOK1 = TAOK1 (Homo sapiens, UniProt Q7L7X3); settings: compound concentration 100 nM; Entrez TAOK1; read-out: Percent Control
Source text: as §1

NEK11 = NEK11 (Homo sapiens, UniProt Q8NG66); settings: 1000 nM, read-out: Percent Control
Source text: as §1

LCK = LCK (Homo sapiens, UniProt P06239); settings: 1000 nM, read-out: Percent Control
Source text: as §1

CSNK1A1 = CSNK1A1 (Homo sapiens, UniProt P48729); settings: 1000 nM, read-out: Percent Control
Source text: as §1

CAMK2G = CAMK2G (Homo sapiens, UniProt Q13555); settings: 1000 nM, read-out: Percent Control
Source text: as §1

PAK4 = PAK4 (Homo sapiens, UniProt O96013); settings: 1000 nM, read-out: Percent Control
Source text: as §1

CSNK1D = CSNK1D (Homo sapiens, UniProt P48730); settings: 1000 nM, read-out: Percent Control
Source text: as §1

[1] = target: RSK2(Kin.Dom.2-C-terminal) (Homo sapiens, UniProt P51812); settings: 1000 nM, read-out: Percent Control
Source text: as §1

PRKCD = PRKCD (Homo sapiens, UniProt Q05655); settings: compound concentration 100 nM; Entrez PRKCD; read-out: Percent Control
Source text: as §1

BRSK1 = BRSK1 (Homo sapiens, UniProt Q8TDC3); settings: 1000 nM, read-out: Percent Control
Source text: as §1

YSK4 = YSK4 (Homo sapiens, UniProt Q56UN5); settings: compound concentration 100 nM; Entrez MAP3K19; read-out: Percent Control
Source text: as §1

MAP3K1 = MAP3K1 (Homo sapiens, UniProt Q13233); settings: compound concentration 100 nM; Entrez MAP3K1; read-out: Percent Control
Source text: as §1

SRPK3 = SRPK3 (Homo sapiens, UniProt Q9UPE1); settings: compound concentration 100 nM; Entrez SRPK3; read-out: Percent Control
Source text: as §1

JNK3 = JNK3 (Homo sapiens, UniProt P53779); settings: 1000 nM, read-out: Percent Control
Source text: as §1

MYLK4 = MYLK4 (Homo sapiens, UniProt Q86YV6); settings: compound concentration 100 nM; Entrez MYLK4; read-out: Percent Control
Source text: as §1

SGK2 = SGK2 (Homo sapiens, UniProt Q9HBY8); settings: 1000 nM, read-out: Percent Control
Source text: as §1

TNK2 = TNK2 (Homo sapiens, UniProt Q07912); settings: read-out: Percent Control
Source text: as §1

PIM3 = PIM3 (Homo sapiens, UniProt Q86V86); settings: 1000 nM, read-out: Percent Control
Source text: as §1

DYRK1A = DYRK1A (Homo sapiens, UniProt Q13627); settings: 1000 nM, read-out: Percent Control
Source text: as §1

PLK4 = PLK4 (Homo sapiens, UniProt O00444); settings: 1000 nM, read-out: Percent Control
Source text: as §1

ULK3 = ULK3 (Homo sapiens, UniProt Q6PHR2); settings: 1000 nM, read-out: Percent Control
Source text: as §1

FAK = FAK (Homo sapiens, UniProt Q05397); settings: 1000 nM, read-out: Percent Control
Source text: as §1

HPK1 = HPK1 (Homo sapiens, UniProt Q92918); settings: read-out: Percent Control
Source text: as §1

CSK = CSK (Homo sapiens, UniProt P41240); settings: 1000 nM, read-out: Percent Control
Source text: as §1

DRAK1 = DRAK1 (Homo sapiens, UniProt Q9UEE5); settings: 1000 nM, read-out: Percent Control
Source text: as §1

DRAK2 = DRAK2 (Homo sapiens, UniProt O94768); settings: 1000 nM, read-out: Percent Control
Source text: as §1

NEK7 = NEK7 (Homo sapiens, UniProt Q8TDX7); settings: 1000 nM, read-out: Percent Control
Source text: as §1

GSK3A = GSK3A (Homo sapiens, UniProt P49840); settings: 1000 nM, read-out: Percent Control
Source text: as §1

MARK3 = MARK3 (Homo sapiens, UniProt P27448); settings: 1000 nM, read-out: Percent Control
Source text: as §1

SIK = SIK (Homo sapiens, UniProt P57059); settings: 1000 nM, read-out: Percent Control
Source text: as §1

MST1R = MST1R (Homo sapiens, UniProt Q04912); settings: 1000 nM, read-out: Percent Control
Source text: as §1

BUB1 = BUB1 (Homo sapiens, UniProt O43683); settings: 1000 nM, read-out: Percent Control
Source text: as §1

TRKA = TRKA (Homo sapiens, UniProt P04629); settings: 1000 nM, read-out: Percent Control
Source text: as §1

ANKK1 = ANKK1 (Homo sapiens, UniProt Q8NFD2); settings: 1000 nM, read-out: Percent Control
Source text: as §1

NEK2 = NEK2 (Homo sapiens, UniProt P51955); settings: compound concentration 100 nM; Entrez NEK2; read-out: Percent Control
Source text: as §1

NEK9 = NEK9 (Homo sapiens, UniProt Q8TD19); settings: 1000 nM, read-out: Percent Control
Source text: as §1

PRKG1 = PRKG1 (Homo sapiens, UniProt Q13976); settings: 1000 nM, read-out: Percent Control
Source text: as §1

Sequence of HPK1 (Q92918 whole entry): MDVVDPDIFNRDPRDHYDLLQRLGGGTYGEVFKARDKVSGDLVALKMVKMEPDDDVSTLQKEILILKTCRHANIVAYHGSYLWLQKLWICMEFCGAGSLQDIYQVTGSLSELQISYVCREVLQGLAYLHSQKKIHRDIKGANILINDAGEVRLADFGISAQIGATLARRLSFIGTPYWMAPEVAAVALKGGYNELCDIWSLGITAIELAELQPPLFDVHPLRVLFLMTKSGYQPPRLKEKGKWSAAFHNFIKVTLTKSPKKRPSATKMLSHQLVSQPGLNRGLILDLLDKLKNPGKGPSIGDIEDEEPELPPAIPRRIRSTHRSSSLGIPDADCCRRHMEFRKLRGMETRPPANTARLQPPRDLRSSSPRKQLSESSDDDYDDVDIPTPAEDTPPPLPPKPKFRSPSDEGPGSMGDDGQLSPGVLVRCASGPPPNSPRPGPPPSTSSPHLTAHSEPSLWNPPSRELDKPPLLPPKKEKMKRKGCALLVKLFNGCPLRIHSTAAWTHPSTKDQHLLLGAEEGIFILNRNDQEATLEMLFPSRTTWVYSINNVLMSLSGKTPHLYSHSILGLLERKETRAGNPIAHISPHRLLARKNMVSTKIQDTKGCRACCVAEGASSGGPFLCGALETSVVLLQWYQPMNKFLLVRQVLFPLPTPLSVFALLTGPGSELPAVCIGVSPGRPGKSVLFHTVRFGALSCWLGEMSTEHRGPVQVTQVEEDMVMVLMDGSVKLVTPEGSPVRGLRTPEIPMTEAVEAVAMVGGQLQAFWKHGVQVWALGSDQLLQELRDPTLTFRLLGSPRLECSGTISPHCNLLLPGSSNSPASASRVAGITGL
Sequence of TNK2 (Q07912 whole entry): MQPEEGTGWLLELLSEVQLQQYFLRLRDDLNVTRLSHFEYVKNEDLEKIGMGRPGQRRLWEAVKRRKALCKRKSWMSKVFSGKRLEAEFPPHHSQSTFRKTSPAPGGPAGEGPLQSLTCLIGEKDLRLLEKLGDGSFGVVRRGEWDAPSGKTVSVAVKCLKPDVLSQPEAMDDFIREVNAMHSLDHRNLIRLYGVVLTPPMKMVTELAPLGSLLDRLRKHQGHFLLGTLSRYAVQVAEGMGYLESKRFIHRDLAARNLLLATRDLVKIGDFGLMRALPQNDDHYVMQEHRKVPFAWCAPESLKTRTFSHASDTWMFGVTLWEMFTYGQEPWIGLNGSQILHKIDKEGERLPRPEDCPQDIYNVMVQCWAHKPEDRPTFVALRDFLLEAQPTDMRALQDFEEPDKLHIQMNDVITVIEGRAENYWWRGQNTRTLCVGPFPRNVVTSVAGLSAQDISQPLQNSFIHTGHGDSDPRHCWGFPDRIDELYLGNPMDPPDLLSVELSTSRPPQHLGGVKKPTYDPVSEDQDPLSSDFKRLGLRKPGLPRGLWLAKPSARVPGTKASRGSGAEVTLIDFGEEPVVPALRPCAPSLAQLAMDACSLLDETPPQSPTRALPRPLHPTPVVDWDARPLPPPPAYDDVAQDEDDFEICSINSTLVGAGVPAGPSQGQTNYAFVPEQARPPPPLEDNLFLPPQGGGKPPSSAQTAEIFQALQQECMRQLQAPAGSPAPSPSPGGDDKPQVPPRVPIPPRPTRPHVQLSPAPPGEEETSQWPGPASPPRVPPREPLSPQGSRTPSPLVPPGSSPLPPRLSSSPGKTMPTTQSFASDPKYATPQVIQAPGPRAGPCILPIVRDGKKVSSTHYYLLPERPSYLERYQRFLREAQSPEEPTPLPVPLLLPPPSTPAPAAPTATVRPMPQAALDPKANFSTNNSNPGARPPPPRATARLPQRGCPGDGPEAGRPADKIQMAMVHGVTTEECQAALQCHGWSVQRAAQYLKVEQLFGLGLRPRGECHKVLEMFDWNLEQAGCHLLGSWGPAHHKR
Sequence of JNK3 (P53779 whole entry): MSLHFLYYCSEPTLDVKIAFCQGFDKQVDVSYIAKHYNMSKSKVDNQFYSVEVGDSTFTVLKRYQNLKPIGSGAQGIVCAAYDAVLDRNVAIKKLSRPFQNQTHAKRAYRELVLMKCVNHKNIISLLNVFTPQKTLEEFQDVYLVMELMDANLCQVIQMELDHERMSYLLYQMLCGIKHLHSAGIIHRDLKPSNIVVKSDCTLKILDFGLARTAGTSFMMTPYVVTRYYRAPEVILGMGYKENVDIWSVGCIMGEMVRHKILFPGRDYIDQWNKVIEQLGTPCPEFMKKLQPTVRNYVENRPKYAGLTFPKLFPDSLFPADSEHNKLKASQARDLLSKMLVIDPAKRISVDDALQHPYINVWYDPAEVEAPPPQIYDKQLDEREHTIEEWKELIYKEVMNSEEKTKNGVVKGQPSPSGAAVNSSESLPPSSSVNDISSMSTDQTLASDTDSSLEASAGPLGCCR
Sequence of NEK2 (P51955 whole entry): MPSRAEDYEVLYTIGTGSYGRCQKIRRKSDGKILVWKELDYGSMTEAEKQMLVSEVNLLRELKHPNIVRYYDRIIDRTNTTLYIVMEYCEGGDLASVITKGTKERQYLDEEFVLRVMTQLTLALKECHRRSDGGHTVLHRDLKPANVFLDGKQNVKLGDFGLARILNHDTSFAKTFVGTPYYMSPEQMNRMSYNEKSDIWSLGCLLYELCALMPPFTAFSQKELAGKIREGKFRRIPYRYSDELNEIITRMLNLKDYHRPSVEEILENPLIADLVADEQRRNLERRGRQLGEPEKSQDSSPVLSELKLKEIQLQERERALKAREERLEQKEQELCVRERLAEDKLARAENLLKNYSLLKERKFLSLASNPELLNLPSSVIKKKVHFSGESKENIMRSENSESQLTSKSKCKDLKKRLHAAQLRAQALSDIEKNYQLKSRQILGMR
Sequence of FAK (Q05397 whole entry): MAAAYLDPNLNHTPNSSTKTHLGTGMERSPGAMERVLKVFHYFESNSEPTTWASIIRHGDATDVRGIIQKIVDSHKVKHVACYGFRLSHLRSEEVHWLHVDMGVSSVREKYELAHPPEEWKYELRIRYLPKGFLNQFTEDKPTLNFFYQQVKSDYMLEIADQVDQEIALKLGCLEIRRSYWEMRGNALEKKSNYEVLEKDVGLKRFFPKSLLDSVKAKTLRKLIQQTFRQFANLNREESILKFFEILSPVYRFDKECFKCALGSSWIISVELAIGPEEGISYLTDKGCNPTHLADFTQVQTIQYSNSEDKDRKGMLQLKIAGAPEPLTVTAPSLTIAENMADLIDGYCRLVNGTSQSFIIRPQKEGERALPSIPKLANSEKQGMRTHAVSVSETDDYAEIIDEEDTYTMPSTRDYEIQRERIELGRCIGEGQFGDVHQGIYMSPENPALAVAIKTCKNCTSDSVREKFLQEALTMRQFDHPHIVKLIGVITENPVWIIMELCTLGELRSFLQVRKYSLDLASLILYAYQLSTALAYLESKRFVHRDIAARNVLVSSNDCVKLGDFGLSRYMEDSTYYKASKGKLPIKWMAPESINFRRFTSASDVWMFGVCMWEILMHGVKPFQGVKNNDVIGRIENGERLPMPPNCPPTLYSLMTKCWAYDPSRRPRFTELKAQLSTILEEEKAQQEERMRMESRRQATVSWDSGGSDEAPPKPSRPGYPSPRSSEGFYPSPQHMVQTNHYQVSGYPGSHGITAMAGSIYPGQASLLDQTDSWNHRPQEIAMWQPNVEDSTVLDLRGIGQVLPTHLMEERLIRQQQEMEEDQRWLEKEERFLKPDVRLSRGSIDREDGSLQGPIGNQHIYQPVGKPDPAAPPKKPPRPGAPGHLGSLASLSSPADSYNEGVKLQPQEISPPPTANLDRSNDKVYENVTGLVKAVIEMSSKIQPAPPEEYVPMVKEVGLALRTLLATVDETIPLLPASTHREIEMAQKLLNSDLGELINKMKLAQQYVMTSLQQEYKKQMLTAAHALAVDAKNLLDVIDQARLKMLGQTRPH
Sequence of DRAK1 (Q9UEE5 whole entry): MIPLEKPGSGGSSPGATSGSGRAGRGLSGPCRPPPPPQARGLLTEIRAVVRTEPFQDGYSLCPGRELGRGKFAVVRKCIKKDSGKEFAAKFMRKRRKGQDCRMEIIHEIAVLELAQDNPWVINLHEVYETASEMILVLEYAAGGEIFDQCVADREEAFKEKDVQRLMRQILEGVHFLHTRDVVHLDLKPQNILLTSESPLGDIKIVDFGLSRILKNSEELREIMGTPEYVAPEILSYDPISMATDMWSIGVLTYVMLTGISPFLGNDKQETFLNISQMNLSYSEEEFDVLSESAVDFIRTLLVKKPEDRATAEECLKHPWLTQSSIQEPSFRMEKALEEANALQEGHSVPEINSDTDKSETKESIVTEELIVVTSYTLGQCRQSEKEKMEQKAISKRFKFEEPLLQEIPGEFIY
Sequence of DRAK2 (O94768 whole entry): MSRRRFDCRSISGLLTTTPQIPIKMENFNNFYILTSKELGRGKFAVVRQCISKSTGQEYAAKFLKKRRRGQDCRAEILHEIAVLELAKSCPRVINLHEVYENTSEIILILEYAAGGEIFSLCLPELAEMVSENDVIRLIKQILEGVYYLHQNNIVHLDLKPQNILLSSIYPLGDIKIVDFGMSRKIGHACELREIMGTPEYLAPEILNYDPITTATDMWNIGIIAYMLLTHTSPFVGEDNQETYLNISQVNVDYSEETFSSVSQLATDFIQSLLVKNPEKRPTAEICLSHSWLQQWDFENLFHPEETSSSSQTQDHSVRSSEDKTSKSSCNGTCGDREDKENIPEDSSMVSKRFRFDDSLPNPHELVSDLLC

## CN1C(=O)[C@@H](N2CCc3c(nn(Cc4ccccc4)c3C(N)=O)C2=O)COc2cc(Cl)ccc21 [Compound 10, (S)-2-benzyl-6-(8-chloro-5-methyl-4-oxo-2,3,4,5-tetrahydrobenzo[b][1,4]oxazepin-3-yl)-7-oxo-4,5,6,7-tetrahydro-2H-pyrazolo[3,4-c]pyridine-3-carboxamide]
SRPK1
  remaining binding at 1 µM: 88%
TAOK1
  remaining binding at 0.1 µM: 100%
NEK11
  remaining binding at 1 µM: 78%
LCK
  remaining binding at 1 µM: 82%
CSNK1A1
  remaining binding at 1 µM: 83%
CAMK2G
  remaining binding at 1 µM: 84%
PAK4
  remaining binding at 1 µM: 73%
CSNK1D
  remaining binding at 1 µM: 87%
[1]
  remaining binding at 1 µM: 88%
PRKCD
  remaining binding at 0.1 µM: 83%
BRSK1
  remaining binding at 1 µM: 85%
YSK4
  remaining binding at 0.1 µM: 88%
MAP3K1
  remaining binding at 0.1 µM: 100%
SRPK3
  remaining binding at 0.1 µM: 100%
JNK3
  remaining binding at 1 µM: 95%
MYLK4
  remaining binding at 0.1 µM: 92%
SGK2
  remaining binding at 1 µM: 95%
TNK2; 1000 nM
  remaining binding at 1 µM: 98%
TNK2; compound concentration 100 nM, Entrez TNK2
  remaining binding at 0.1 µM: 89%
PIM3
  remaining binding at 1 µM: 65%
DYRK1A
  remaining binding at 1 µM: 93%
PLK4
  remaining binding at 1 µM: 82%
ULK3
  remaining binding at 1 µM: 93%
FAK
  remaining binding at 1 µM: 90%
HPK1; 1000 nM
  remaining binding at 1 µM: 100%
HPK1; compound concentration 100 nM, Entrez MAP4K1
  remaining binding at 0.1 µM: 99%
CSK
  remaining binding at 1 µM: 97%
DRAK1
  remaining binding at 1 µM: 91%
DRAK2
  remaining binding at 1 µM: 82%
NEK7
  remaining binding at 1 µM: 93%
GSK3A
  remaining binding at 1 µM: 98%
MARK3
  remaining binding at 1 µM: 98%
SIK
  remaining binding at 1 µM: 91%
MST1R
  remaining binding at 1 µM: 91%
BUB1
  remaining binding at 1 µM: 78%
TRKA
  remaining binding at 1 µM: 95%
ANKK1
  remaining binding at 1 µM: 80%
NEK2
  remaining binding at 0.1 µM: 82%
NEK9
  remaining binding at 1 µM: 92%
PRKG1
  remaining binding at 1 µM: 91%
